The target of this experiment is T1, Aβ42 aggregation (Homo sapiens, UniProt P05067).
T1 construct: expressed in transfected cells; host or cells: E. coli BL21 (DE3), pET vector
The experiment can be described thus: Thioflavin S assay of Aβ42 aggregation in E. coli cells overexpressing Aβ42. It is filed as cell-based, Escherichia coli. Conditions: read-out: Aβ42 inhibition %. As to the method:
The antiaggregating profiles of both series A and B were evaluated using a fluorescence Thioflavin S (ThS) assay in cellulo, which monitors ThS fluorescence in the presence of β-sheet-rich structures, such as Aβ and tau protein aggregates. This method, based on recombinant Escherichia coli (E. coli) bacteria overexpressing insoluble aggregates, offers a simple and cost-effective approach to model aggregation processes in mammalian systems and has been validated for use in drug discovery studies. , Compounds were tested at a screening concentration of 50 μM for their ability to inhibit Aβ42 aggregation. The results, summarized in Table , reveal distinct antiaggregating profiles between series A and B, which are once again influenced by their structural differences.
42 Amino acid Aβ42 was cloned and overexpressed in E. coli BL21 (DE3) competent cells using the pET vector harboring the DNA sequence of Aβ42. Due to the addition of the initiation codon ATG preceding genes, the resulting overexpressed peptide contained an additional methionine residue at its N-terminus. For the preparation of overnight cultures, a colony of BL21 (DE3) cells carrying the plasmid for expression was inoculated in 10 mL of M9 minimal medium supplemented with 50 μg mL^–1 kanamycin at 37 °C. Subsequently, a 1:500 dilution of the overnight culture was added to fresh M9 minimal medium containing 50 μg mL^–1 kanamycin and 25 μM ThS. The bacterial culture was then incubated at 37 °C with agitation at 250 rpm. Upon reaching an OD600 of 0.6, 980 μL of the culture was transferred into 1.5 mL Eppendorf tubes, each containing 10 μL of the compound to be tested dissolved in DMSO and 10 μL of 100 mM isopropyl 1-thio-β-D-galactopyranoside (IPTG) or, alternatively, 10 μL of water for the noninduced controls. The final compound concentration was adjusted to […]. The samples were allowed to grow overnight at 37 °C with agitation at 1400 rpm using a Thermomixer (Eppendorf). Negative controls, representing maximum amyloid presence, utilized free DMSO.
ThS (T1892) and all other chemical reagents were purchased from Sigma (St. Louis, MO). Stock solutions of ThS (250 μM) were prepared using doubly distilled water purified via a Milli-Q system (Millipore). For the fluorescence assay, ThS spectra were recorded utilizing an AmincoBowman series 2 luminescence spectrophotometer (Aminco-Bowman AB2, SLM Aminco, Rochester, NY) within the range of 460 to 600 nm at a temperature of 25 °C. The excitation wavelength employed was 445 nm, with slit widths set at 4 nm. The emission at 485 nm, corresponding to the ThS peak observed in the presence of amyloids, was recorded. To standardize ThS fluorescence relative to bacterial concentration in both in vitro and cell-based assays, the OD600 was determined using a Shimadzu UV-2401 PC UV–vis spectrophotometer. Fluorescence normalization was executed by setting the ThS fluorescence of bacterial cells expressing the peptide or protein in the absence of the drug as 100%, while that of bacterial cells not expressing the peptide or protein was established as 0%.

T1 sequence (P05067 672-713): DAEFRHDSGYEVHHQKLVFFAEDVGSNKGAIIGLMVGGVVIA

For `C#CCOc1ccc(OC)cc1/C=C/c1cc(=O)c2ccccc2o1` [Compound 7f, (E)-2-[5-Methoxy-2-(prop-2-yn-1-yloxy)styryl]-4H-chromen-4-one], the inhibition – broadly, the drop in the measured response relative to a control, in per cent – at 50 µM is 15 ± 2.7%.

Regarding `N#CCOc1ccccc1/C=C/c1cc(=O)c2ccccc2o1` [Compound 7l, (E)-2-{2-[2-(4-oxo-4H-chromen-2-yl)vinyl]phenoxy}acetonitrile], the inhibition at 50 µM stood at 34 ± 5.2%. As for `C#CCOc1ccc(OC)cc1/C=C/c1cc(=O)c2ccc(OC)cc2o1` [Compound 7p, (E)-7-Methoxy-2-[5-methoxy-2-(prop-2-yn-1-yloxy)styryl]-4H-chromen-4-one], the inhibition at 50 µM was determined as 11 ± 1.5%. As to `C#CCOc1ccccc1/C=C/c1cc(=O)c2c(OC)cccc2o1` [Compound 7c, (E)-5-Methoxy-2-[2-(prop-2-yn-1-yloxy)styryl]-4H-chromen-4-one], the inhibition at 50 µM is 33 ± 2.2%. On to `C#CCOc1c(Br)cc(Cl)cc1/C=C/c1cc(=O)c2ccc(OC)cc2o1` [Compound 7w, (E)-2-[3-Bromo-5-chloro-2-(prop-2-yn-1-yloxy)styryl]-7-methoxy-4H-chromen-4-one], for which the inhibition at 50 µM was 35 ± 3%.

For `C#CCOc1ccc(F)cc1/C=C/c1cc(=O)c2ccccc2o1` [Compound 7i, (E)-2-[5-Fluoro-2-(prop-2-yn-1-yloxy)styryl]-4H-chromen-4-one], the inhibition at 50 µM came to 22 ± 4.8%. In the case of `COc1ccc(C#CCOc2ccccc2/C=C/c2cc(=O)c3ccccc3o2)cc1` [Compound 7n, (E)-2-(2-{[3-(4-Methoxyphenyl)prop-2-yn-1-yl]oxy}styryl)-4H-chromen-4-one], the inhibition at 50 µM stood at 34 ± 3.3%.

As to `COc1cccc2oc3cc4c(cc3c(=O)c12)COc1ccccc1-4` [Compound 11c, 9-Methoxy-6H,8H-chromeno[3,4-b]xanthen-8-one], the inhibition at 50 µM amounted to 34 ± 4.4%. For the molecule `C#CCOc1ccc(OC(F)(F)F)cc1/C=C/c1cc(=O)c2ccccc2o1` [Compound 7h, (E)-2-[2-(Prop-2-yn-1-yloxy)-5-(trifluoromethoxy)styryl]-4H-chromen-4-one], the inhibition at 50 µM is 11 ± 2%. For the molecule `C#CCOc1ccc(Cl)cc1/C=C/c1cc(=O)c2ccccc2o1` [Compound 7j, (E)-2-[5-Chloro-2-(prop-2-yn-1-yloxy)styryl]-4H-chromen-4-one], the inhibition at 50 µM was found to be 11 ± 2.3%. Consider `O=c1cc(/C=C/c2ccccc2OCC#Cc2ccccc2)oc2ccccc12` [Compound 7m, (E)-2-{2-[(3-Phenylprop-2-yn-1-yl)oxy]styryl}-4H-chromen-4-one], for which the inhibition at 50 µM amounted to 28 ± 3.8%.

Consider `O=c1c2ccccc2oc2cc3c(cc12)COc1ccc2ccccc2c1-3` [Compound 12a], for which the inhibition at 50 µM turned out to be 43 ± 3.9%.

With `O=c1c2ccccc2oc2cc3c(cc12)COc1ccc(Br)cc1-3` [Compound 11g, 2-Bromo-6H,8H-chromeno[3,4-b]xanthen-8-one], the inhibition at 50 µM came to 36 ± 4.8%.

On to `O=c1c2ccccc2oc2cc3c(cc12)COc1ccc(Cl)cc1-3` [Compound 11j, 2-Chloro-6H,8H-chromeno[3,4-b]xanthen-8-one], for which the inhibition at 50 µM was 45 ± 7.4%. For the molecule `COc1ccc2c(c1)-c1cc3oc4c(OC)c(OC)ccc4c(=O)c3cc1CO2` [Compound 11n, 2,11,12-Trimethoxy-6H,8H-chromeno[3,4-b]xanthen-8-one], the inhibition at 50 µM came to 34 ± 4%. With `C#CCOc1ccc(OC(F)(F)F)cc1/C=C/c1cc(=O)c2ccc(OC)cc2o1` [Compound 7t, (E)-7-Methoxy-2-[2-(prop-2-yn-1-yloxy)-5-(trifluoromethoxy)styryl]-4H-chromen-4-one], the inhibition at 50 µM was found to be 20 ± 2.3%. The value for `C#CCOc1ccccc1/C=C/c1cc(=O)c2c(OC)cc(OC)cc2o1` [Compound 7e, (E)-5,7-Dimethoxy-2-[2-(prop-2-yn-1-yloxy)styryl]-4H-chromen-4-one] was 24 ± 1.7%; that for `C#CCOc1ccc(Br)cc1/C=C/c1cc(=O)c2ccccc2o1` [Compound 7g, (E)-2-[5-Bromo-2-(prop-2-yn-1-yloxy)styryl]-4H-chromen-4-one] was 25 ± 4.6%; that for `C#CCOc1ccc(F)cc1/C=C/c1cc(=O)c2ccc(OC)cc2o1` [Compound 7u, (E)-2-[5-Fluoro-2-(prop-2-yn-1-yloxy)styryl]-7-methoxy-4H-chromen-4-one] was 28 ± 3.5%. As to `COc1ccc2c(c1)-c1cc3oc4cc(OC)cc(OC)c4c(=O)c3cc1CO2` [Compound 11o, 2,9,11-Trimethoxy-6H,8H-chromeno[3,4-b]xanthen-8-one], the inhibition at 50 µM was found to be 33 ± 4.3%. On to `C#CCOc1ccc(Cl)cc1/C=C/c1cc(=O)c2ccc(OC)cc2o1` [Compound 7v, (E)-2-[5-Chloro-2-(prop-2-yn-1-yloxy)styryl]-7-methoxy-4H-chromen-4-one], for which the inhibition at 50 µM came out at 17 ± 2%. As to `C#CCOc1ccc2ccccc2c1/C=C/c1cc(=O)c2ccccc2o1` [Compound 8a], the inhibition at 50 µM was 47 ± 3.9%. As to `C#CCOc1ccc(OC)cc1/C=C/c1cc(=O)c2ccc(OC)c(OC)c2o1` [Compound 7r], the inhibition at 50 µM amounted to 40 ± 5.6%. Consider `C#CCOc1ccccc1/C=C/c1cc(=O)c2ccc(OC)cc2o1` [Compound 7b, (E)-7-Methoxy-2-[2-(prop-2-yn-1-yloxy)styryl]-4H-chromen-4-one], for which the inhibition at 50 µM was found to be 23 ± 1.8%. For `C#CCOc1ccc2ccccc2c1/C=C/c1cc(=O)c2ccc(OC)cc2o1` [Compound 8b], the inhibition at 50 µM is 32 ± 4.3%. With `C#CCOc1ccc(OC)cc1/C=C/c1cc(=O)c2c(OC)cc(OC)cc2o1` [Compound 7s, (E)-5,7-Dimethoxy-2-[5-methoxy-2-(prop-2-yn-1-yloxy)styryl]-4H-chromen-4-one], the inhibition at 50 µM was 50 ± 1.6%. The value for `C#CCOc1c(Br)cc(Cl)cc1/C=C/c1cc(=O)c2ccccc2o1` [Compound 7k, (E)-2-[3-Bromo-5-chloro-2-(prop-2-yn-1-yloxy)styryl]-4H-chromen-4-one] was 24 ± 3%; that for `COc1ccc2c(=O)c3cc4c(cc3oc2c1)-c1cc(OC(F)(F)F)ccc1OC4` [Compound 11p, 11-Methoxy-2-(trifluoromethoxy)-6H,8H-chromeno[3,4-b]xanthen-8-one] was 29 ± 7.6%.

The values are drawn from article PMC12818745 (ACS Chemical Neuroscience, 2025).
